# Where two headings read alike, the source gives them in different places.
# Legend:
# [1] = tested on: uropathogenic E. coli strain UTI89; test: MIC of ciprofloxacin; type: cell-based, Escherichia coli
# [2] = tested on: UMUC-3 bladder cancer cells; test: Cancer cell viability in clusters co-cultured with UTI89 (CT and CL models), Calcein-AM/Hoechst; doxorubicin dose-response; type: cell-based, human; conditions: for IC50: Homo sapiens, UMUC3, MOI 1:1, concentration giving 50% cell viability
# Method: For CT models, bacterial suspension was centrifuged for 10,000 rpm for 5 min, and the supernatant was removed and replaced with MEM-α (10% supplemented with FBS, no added penicillin-streptomycin) at final dilutions at the rate of 500:1, 100:1, and 1:1 (bacteria:cell). After seeding and incubating for 24 h, the UMUC-3 cell clusters in the microchannels were stained using Hoechst dye for 30 minutes at 37° C. before infection. After original media with dye in channels was gently removed, the diluted bacterial suspension was added into 9 channels separately, three channels per concentration. The corresponding control group of the two models was obtained at time points before the introduction of bacteria.
# As for CL models, bacteria suspended in MEM a and UMUC-3 cells (no added penicillin-streptomycin) were mixed before seeding at the rate of 500:1, 100:1, and 1:1. The device was incubated at 37° C. with 5% CO2 and in situ imaging and analyzing at 1 h, 9 h, and 24 h, respectively. Besides, an isolated channel only with 24 h cultured UMUC-3 was set as a negative control to indicate the beginning of the infection.
# For fluorescent staining analysis, the nuclear dye Hoechst (Life Technologies) and Calcein-AM (Invitrogen) were added into cell suspension in the channel at dilution of 1:1000 (v/v). After incubating for 30 minutes at 37° C. for staining, the media was gently removed from each channel, and the device could be imaged via Nikon Ci-L fluorescent microscope directly at 10× magnification. The images processing and cell counting under fluorescent staining were done through ImageJ software. For infection analysis imaging, after incubating for 30 minutes with fluorescent dyes and remove the mixture of dyes and media in the channel, the channels were washed with 1×PBS to remove unbound bacteria and treated with 100 μg/mL gentamicin for 2 h to kill the extracellular bacteria, then the device could be imaged directly. […]
# [3] = tested on: UMUC-3 bladder cancer cells; test: Viability of non-infected cancer cells after DNase or Cipro treatment; type: cell-based, human; conditions: uninfected control; Cipro 24 h
# [4] = tested on: UMUC-3 bladder cancer cells; test: In situ immunostaining of CD44 and CD24 after DNase treatment; type: cell-based, human; conditions: CT model, 9 h after infection
# Method: The infected cell clusters were firstly washed with 1×PBS gently and treated with 100 μg/mL gentamicin for 2 h to kill extracellular bacteria but keep the intracellular ones. Then channels were loaded PBS with antibody dyes at dilution of […] (v/v). After incubating for 30 minutes at room temperature for staining, the PBS was gently removed from each channel, and the stained clusters could be directly observed through a fluorescent microscope.
# (§1) To dissolve the biofilm, 1×DNase (0.01 mg/mL; Sigma-Aldrich) diluted with fresh antibiotic-free culture media were added into channels after 1 h infection, and the device was continually incubated at 37° C. for 8 h. Then downstream in situ analysis was done after removing DNase and washing channels with PBS. The untreated clusters after 9 h infection were set as control.
# [5] = tested on: UMUC-3 bladder cancer cells; test: Cluster size after DNase treatment of coculture (in situ morphology analysis); type: cell-based, human; conditions: 0.01 mg/mL DNase, 9 h of infection
# Method: The clusters formed in the microwell after 24 h culture or infection were imaged via an optical microscope by the device put on the objective directly at 40× or 100× magnification. Each channel was shot at three frames at the top, middle and bottom state. The image processing and analysis of cluster size and density were done through ImageJ software.
# as §1
compound,measurement,setting,value
O=C(O)c1cn(C2CC2)c2cc(N3CCNCC3)c(F)cc2c1=O [ciprofloxacin],MIC,"[1]; Escherichia coli, as printed in Example 7",0.025 µg/mL
same,MIC value,[1]; as printed in legend of FIG. 14C,0.025 µg/mL
COc1cccc2c1C(=O)c1c(O)c3c(c(O)c1C2=O)C[C@@](O)(C(=O)CO)C[C@@H]3O[C@H]1C[C@H](N)[C@H](O)[C@H](C)O1 [doxorubicin],IC50,"[2]; CL model (intratumoral UTI89), read-out: IC50 of doxorubicin on cancer cells with the CL model",1590 nM
same,IC50,"[2]; CT model (extratumoral UTI89), read-out: IC50 of doxorubicin on cancer cells with the CT model",1790 nM
DNase,adverse effect on non-infected cancer cells (viability),[3],neither ciprofloxacin nor DNase had adverse effect
same,"expression intensity of CD24, DNase-treated vs untreated control",[4],reduced
same,"expression intensity of CD44, DNase-treated vs untreated control",[4],reduced
same,cancer cell viability in the CT model after biofilm disruption by DNase,"[2]; CT model, 9 h infection, more obvious at MOIs 100:1 and 500:1",increased to a level comparable to that in the CL model
same,cluster size in the CL model after DNase treatment,[5]; CL model,slight increase in cluster size
same,cluster size in the CT model after DNase treatment,[5]; CT model,reverse the effect of cluster size reduction

# Source: patent publication US12493025B2, “Microfluidic device and method of preparing a cell model for disease associated with cancer” (City University of Hong Kong, priority 2020, dated 2025)
